From patent US20090275496A1, “Effective quantitation of complex peptide mixtures in tissue samples and improved therapeutic methods” (Peptimmune, Inc., priority 2004, published 2009)

Key:
[1] = system: anti-PI-2301 biotinylated antibody (bAb); test: Direct competition ELISA, specificity of the anti-PI-2301 biotinylated antibody; format: binding, rabbit
Experimental: A direct competition ELISA was carried out for the detection and quantitation of PI-2301, an RSP composition. […] Unbound material was washed away and diluted streptavidin-horseradish peroxidase (HRP) conjugate was added to the wells. After washing away any unbound streptavidin conjugate, substrate for HRP catalyzed […] was added to the wells and incubated, yielding a blue color that turns yellow when stop solution is added. The optical density of the color was measured at 450 nm using a microtiter plate reader (for example, Bio-Tek ELx405) and a standard curve was generated.
Specificity is the ability of a method to measure the material of interest to the exclusion of other similar compounds. In this method, specificity is a function of the anti-PI-2301 biotinylated antibody (bAb). If the bAb recognizes, and binds preferentially to, the compound in the serum the bAb will be washed away and the final A450 value will be low. […] Table 5 summarizes the A450 specificity data for 3 compounds spiked into mouse serum.

[2] = Serum concentration and bioavailability after administration to mice (ELISA); format: in vivo, CD-1 mice
Experimental: The blood sample was allowed to clot at room temperature for 15-30 minutes and then the tube was centrifuged at 4° C., 10,000 RPM, for 10 minutes in order to isolate serum. Serum was collected, aliquoted, and stored −80° C. for future testing.
After washing away any unbound conjugate, substrate was added to the wells and incubated, yielding a blue color that turned yellow when stop solution was added. The optical density was measured at 450 nm and a standard curve was generated.

[3] = system: myeloid cells isolated from femurs of immunologically naive mice; test: In vitro effects on macrophages: cytokines and chemokines in supernatants; format: cell-based; conditions: culture supernatant
Excerpt: Isolated cells were labeled with magnetic beads and T- and B-cells were depleted from the sample. […] TNFα, IL-6, CXCL1 and CXCL2 as inflammatory markers, and IL-12p70, CXCL13, and CCL22 as regulatory markers.

HLA-DR2 (DRB1*1501) = HLA-DR2 (DRB1*1501) (Homo sapiens, UniProt P01903+P01911); conditions: MS-associated, peptide-specific manner; cited from earlier work
HLA-DR1 (DRB1*0101) = HLA-DR1 (DRB1*0101) (Homo sapiens, UniProt P01903+P01911, A100R/D57E/F55L/F60I/F76Y/I96L/L162R/M171V/P40L/Q125E/R42F/V115G/Y59C); conditions: RA-associated, peptide-specific manner; cited from earlier work
HLA-DR4 (DRB1*0401) = HLA-DR4 (DRB1*0401) (Homo sapiens, UniProt P01903+P01911, A100K/A169T/F76Y/I96L/K127E/L162R/M171V/N62H/P40V/Q125Y/R42H/S133A/S149N/S66Y/V115G/V209L/W38E); conditions: RA-associated, peptide-specific manner; cited from earlier work
MS = conditions: Bornstein 1987; Johnson 1995; cited from earlier work

glatiramer acetate [Cop-1]
detection by the antibody for PI-2301 [1]: detects Cop-1 efficiently
time of peak serum concentration ([2]; after subcutaneous administration to mice): about 15 minutes
administered amount available in the plasma (bioavailability) ([2]; mice, single subcutaneous or intravenous administration): About 8.5%
expression of CXCL1 [3]: no significant effect
expression of CXCL2 [3]: no significant effect
expression of IL-6 [3]: no significant effect
expression of TNFα [3]: no significant effect
binding to purified HLA-DR2 (DRB1*1501) (HLA-DR2 (DRB1*1501)): high affinity
binding to purified HLA-DR1 (DRB1*0101) (HLA-DR1 (DRB1*0101)): high affinity
binding to purified HLA-DR4 (DRB1*0401) (HLA-DR4 (DRB1*0401)): high affinity
effect on MS in patients (MS): ameliorate MS but does not suppress the disease entirely
